Laboratory results as given in patent publication US12624004B2 (Fudan University, priority 2019, dated 2026).
Like-named read-outs stand apart in the source and are kept apart here.

Molecular target: T1, δ opioid receptor (Homo sapiens, UniProt P41143)
T1 construct: expressed in transfected cells; host or cells: CHO cells (membranes)
Assay: Competition binding assay on membranes of CHO cells expressing δ opioid receptor, [3H]-labeled ligand
Summary of the method: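 CHO membranes (20–30 μg protein) incubated with [3H]-labeled ligand at 1–2 nM and test compounds, 30 min at 30° C; nonspecific binding with 1 μM corresponding ligand. Filtered on GF/C, washed with 50 mM Tris-HCl pH 7.4, scintillation-counted. IC50 converted to Ki by Ki=IC50/(1+[L]/Kd).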

T1 sequence (P41143 whole entry): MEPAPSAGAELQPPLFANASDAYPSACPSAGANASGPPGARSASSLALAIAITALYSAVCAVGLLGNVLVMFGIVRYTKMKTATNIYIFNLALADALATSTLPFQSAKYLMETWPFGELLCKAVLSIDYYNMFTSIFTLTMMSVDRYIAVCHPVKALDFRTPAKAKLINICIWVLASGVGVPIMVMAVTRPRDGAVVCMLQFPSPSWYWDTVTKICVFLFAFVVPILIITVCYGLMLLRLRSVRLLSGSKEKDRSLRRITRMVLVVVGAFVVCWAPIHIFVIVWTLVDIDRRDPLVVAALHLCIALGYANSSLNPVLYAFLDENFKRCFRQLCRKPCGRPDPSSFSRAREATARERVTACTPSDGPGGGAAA

COc1cccc(C2(O)CCCCC2CN(C)C)c1 (centres unmarked) [Tramadol, reference compound]
0%: inhibition at 10 µM (0.5 h, Table 1-1, 10 μM concentration of compound, read-out: δOR Binding rate (%)) | inhibition at 1 µM (0.5 h, Table 2-1, 1 μM concentration of compound, read-out: δOR Binding rate (%)) | inhibition at 1 µM (0.5 h, Table 5-1, 1 μM concentration of compound, read-out: δOR Combination rate (%)) | δOR Binding rate (%) (Table 3-1, 1 μM concentration of compounds) | δOR Binding rate (%) (Table 4-1, 1 μM concentration of compound)
